Results: article PMC6447857, “Structural Study of Agmatine Iminohydrolase From Medicago truncatula, the Second Enzyme of the Agmatine Route of Putrescine Biosynthesis in Plants” (Frontiers in Plant Science, 2019)

Target: T1, MtAIH (Medicago truncatula, UniProt G7JT50)
T1 construct: gene AIH; ORF from codon 11 (leaf cDNA), pMCSG68, N-terminal His6-tag removed by TEV, Ser-Asn-Ala linker kept; E. coli BL21 Gold; homodimer (81 kDa by MALS)
Test: X-ray crystallography (cocrystallization), […] A
Assay type: binding
Conditions: 10 mM ligand, Morpheus Screen, pH 6.5; active site; reaction product analog; bound in three of four chains

T1 sequence (G7JT50 11-374): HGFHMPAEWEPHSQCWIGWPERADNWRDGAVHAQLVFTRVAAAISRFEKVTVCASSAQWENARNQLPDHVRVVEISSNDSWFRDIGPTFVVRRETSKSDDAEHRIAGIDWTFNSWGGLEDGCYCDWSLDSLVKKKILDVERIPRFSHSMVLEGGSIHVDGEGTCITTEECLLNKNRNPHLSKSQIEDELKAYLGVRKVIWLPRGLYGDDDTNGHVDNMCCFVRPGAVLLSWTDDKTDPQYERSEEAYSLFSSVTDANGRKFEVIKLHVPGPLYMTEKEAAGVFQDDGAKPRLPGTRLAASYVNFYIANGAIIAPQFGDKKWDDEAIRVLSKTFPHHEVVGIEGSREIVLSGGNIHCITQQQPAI

## NCCCCCC(N)=O [AHX, 6-aminohexanamide]
  X-ray crystallography (cocrystallization), 2.20 A: The MtAIH-AHX structure was obtained by cocrystallization and presents the bound AHX
